Assay results as given in PMC10692362 (Acta Pharmaceutica Sinica. B, 2023).
Like-named read-outs stand apart in the source and are kept apart here.

Columns and labels:
human ERβ LBD = human ERβ LBD (Homo sapiens, UniProt Q92731); test: Competitive fluorescence polarization binding assay, ERβ; conditions: for RBA ERβ: IC50 estradiol/IC50 compound × 100, estradiol = 100%
T-47D cells = test: Cell viability assay; format: cell-based, human; conditions: Homo sapiens, T47D, 72 h, read-out: T-47D IC50
T-47D^D538G cells = test: Cell viability assay; format: cell-based, human; conditions: Homo sapiens, 72 h, read-out: T-47D^D538G IC50
MCF-7 cells = test: Cell viability assay; format: cell-based, human; conditions: Homo sapiens, MCF7, 72 h, read-out: MCF-7 IC50
human ERα LBD = target: T1, human ERα LBD (Homo sapiens, UniProt P03372); test: Competitive fluorescence polarization binding assay, ERα; conditions: for RBA ERα: IC50 estradiol/IC50 compound × 100, estradiol = 100%; for α/β ratio: ratio of RBA ERα to RBA ERβ
T1 sequence (P03372 311-547 limits assumed): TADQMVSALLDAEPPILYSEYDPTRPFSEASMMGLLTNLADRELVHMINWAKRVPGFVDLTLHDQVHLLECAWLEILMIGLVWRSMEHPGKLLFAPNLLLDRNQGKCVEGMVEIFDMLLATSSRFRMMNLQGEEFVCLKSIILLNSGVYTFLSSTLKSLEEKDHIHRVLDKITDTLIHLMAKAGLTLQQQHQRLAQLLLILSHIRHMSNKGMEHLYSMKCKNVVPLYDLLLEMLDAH

T-47D^Y537S cells = test: Cell viability assay; format: cell-based, human; conditions: Homo sapiens, 72 h, read-out: T-47D^Y537S IC50

Sequence of human ERβ LBD (Q92731 264-498 limits assumed): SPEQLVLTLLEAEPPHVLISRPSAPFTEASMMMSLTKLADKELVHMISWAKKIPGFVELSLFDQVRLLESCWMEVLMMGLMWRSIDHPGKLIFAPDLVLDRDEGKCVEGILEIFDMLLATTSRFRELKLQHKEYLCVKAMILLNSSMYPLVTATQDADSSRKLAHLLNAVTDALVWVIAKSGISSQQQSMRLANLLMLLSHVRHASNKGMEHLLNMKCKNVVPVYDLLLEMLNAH

| SMILES | RBA ERβ (human ERβ LBD) [%] | IC50 (T-47D cells) [µM] | IC50 (T-47D^D538G cells) [µM] | IC50 (MCF-7 cells) [µM] | RBA ERα (human ERα LBD) [%] | α/β ratio (human ERα LBD) | IC50 (T-47D^Y537S cells) [µM] | Ki (human ERβ LBD) [µM] | Ki (human ERα LBD) [µM] | Ki (human ERβ LBD; read-out: Ki ERβ) [µM] | Ki (human ERα LBD; read-out: Ki ERα) [µM] |
| --- | --- | --- | --- | --- | --- | --- | --- | --- | --- | --- | --- |
| C=CC(=O)Nc1ccc(OS(=O)(=O)C2CC3OC2C(c2ccc(O)cc2)=C3c2ccc(O)cc2)cc1 (stereo not shown) [Compound 26a, 4-Acrylamidophenyl-5,6-bis(4-hydroxyphenyl)-7-oxabicyclo[2.2.1]hept-5-ene-2-sulfonate] | 3.86 ± 0.34 | > 31 | > 31 | 7.72 ± 0.64 | 8.04 ± 0.87 | 2.08 | 27.2 ± 0.73 | – | – | – | – |
| C/C=C/C(=O)Nc1ccc(OS(=O)(=O)C2CC3OC2C(c2ccc(O)cc2)=C3c2ccc(O)cc2)cc1 (stereo not shown) [Compound 26b, 4-((E)-But-2-enamido)phenyl-5,6-bis(4-hydroxyphenyl)-7-oxabicyclo[2.2.1]hept-5-ene-2-sulfonate] | 0.40 ± 0.05 | 19.4 ± 0.54 | > 31 | 9.18 ± 0.95 | 4.77 ± 0.16 | 11.93 | > 31 | 0.0167 | 0.00058 | – | – |
| CC(C)=CC(=O)Nc1ccc(OS(=O)(=O)C2CC3OC2C(c2ccc(O)cc2)=C3c2ccc(O)cc2)cc1 (stereo not shown) [Compound 26c, 4-(3-Methylbut-2-enamido)phenyl-5,6-bis(4-hydroxyphenyl)-7-oxabicyclo[2.2.1]hept-5-ene-2-sulfonate] | 1.31 ± 0.66 | 15.8 ± 0.68 | 8.75 ± 0.25 | 3.16 ± 0.63 | 3.28 ± 0.17 | 2.50 | 12 ± 0.4 | 0.00509 | 0.00084 | – | – |
| C#CC(=O)Nc1ccc(OS(=O)(=O)C2CC3OC2C(c2ccc(O)cc2)=C3c2ccc(O)cc2)cc1 (stereo not shown) [Compound 26d, 4-Propiolamidophenyl-5,6-bis(4-hydroxyphenyl)-7-oxabicyclo[2.2.1]hept-5-ene-2-sulfonate] | 0.49 ± 0.04 | 6.91 ± 0.29 | 9.33 ± 0.46 | 1.79 ± 0.4 | 0.85 ± 0.08 | 1.73 | 8.93 ± 0.25 | 0.0136 | 0.00325 | – | – |
| O=C(CCl)Nc1ccc(OS(=O)(=O)C2CC3OC2C(c2ccc(O)cc2)=C3c2ccc(O)cc2)cc1 (stereo not shown) [Compound 26e, 4-(2-Chloroacetamido)phenyl-5,6-bis(4-hydroxyphenyl)-7-oxabicyclo[2.2.1]hept-5-ene-2-sulfonate] | 0.55 ± 0.02 | 8.2 ± 0.36 | 7.86 ± 0.37 | 3.42 ± 0.32 | 1.02 ± 0.13 | 1.85 | 8.85 ± 0.61 | 0.0121 | 0.00271 | – | – |
| O=C(CBr)Nc1ccc(OS(=O)(=O)C2CC3OC2C(c2ccc(O)cc2)=C3c2ccc(O)cc2)cc1 (stereo not shown) [Compound 26f, 4-(2-Bromoacetamido)phenyl-5,6-bis(4-hydroxyphenyl)-7-oxabicyclo[2.2.1]hept-5-ene-2-sulfonate] | 3.86 ± 0.34 | 9.11 ± 0.21 | > 31 | 0.5 ± 0.3 | – | 2.08 | > 31 | – | – | – | – |
| C=CC(=O)Nc1ccc(C2=C(c3ccc(O)cc3)C3OC2CC3S(=O)(=O)Oc2ccccc2)cc1 (stereo not shown) [Compound 28a, Phenyl-5-(4-acrylamidophenyl)-6-(4-hydroxyphenyl)-7-oxabicyclo[2.2.1]hept-5-ene-2-sulfonate] | 1.19 ± 0.27 | > 31 | > 31 | 5.07 ± 0.71 | 18.55 ± 0.34 | 15.59 | > 31 | 0.00561 | 0.00015 | – | – |
| C/C=C/C(=O)Nc1ccc(C2=C(c3ccc(O)cc3)C3OC2CC3S(=O)(=O)Oc2ccccc2)cc1 (stereo not shown) [Compound 28b, Phenyl-5-(4-((E)-but-2-enamido)phenyl)-6-(4-hydroxyphenyl)-7-oxabicyclo[2.2.1]hept-5-ene-2-sulfonate] | 10.40 ± 0.23 | 25.6 ± 0.98 | 17.1 ± 0.65 | 0.44 ± 0.11 | 14.08 ± 0.25 | 1.35 | > 31 | 0.00064 | 0.0002 | – | – |
| CC(C)=CC(=O)Nc1ccc(C2=C(c3ccc(O)cc3)C3OC2CC3S(=O)(=O)Oc2ccccc2)cc1 (stereo not shown) [Compound 28c, Phenyl-6-(4-hydroxyphenyl)-5-(4-(3-methylbut-2-enamido)phenyl)-7-oxabicyclo[2.2.1]hept-5-ene-2-sulfonate] | 0.90 ± 0.25 | 24.9 ± 0.77 | 17.6 ± 0.89 | 0.35 ± 0.02 | 22.13 ± 0.92 | 24.59 | > 31 | 0.00741 | 0.00012 | – | – |
| O=C(CCl)Nc1ccc(C2=C(c3ccc(O)cc3)C3CC(S(=O)(=O)Oc4ccccc4)C2O3)cc1 (stereo not shown) [Compound 28d, Phenyl-6-(4-(2-chloroacetamido)phenyl)-5-(4-hydroxyphenyl)-7-oxabicyclo[2.2.1]hept-5-ene-2-sulfonate] | 0.92 ± 0.17 | 13.3 ± 0.77 | > 31 | 0.66 ± 0.12 | 3.46 ± 0.02 | 3.76 | > 31 | 0.00725 | 0.0008 | – | – |
| O=C(CBr)Nc1ccc(C2=C(c3ccc(O)cc3)C3OC2CC3S(=O)(=O)Oc2ccccc2)cc1 (stereo not shown) [Compound 28e, Phenyl-5-(4-(2-bromoacetamido)phenyl)-6-(4-hydroxyphenyl)-7-oxabicyclo[2.2.1]hept-5-ene-2-sulfonate] | 0.36 ± 0.03 | 19.7 ± 0.32 | > 31 | 1.1 ± 0.14 | 9.44 ± 0.40 | 26.22 | > 31 | 0.0185 | 0.00029 | – | – |
| CC(C)=CC(=O)Nc1ccc(C2=C(c3ccc(O)cc3)C3CC(S(=O)(=O)Oc4ccc(O)cc4)C2O3)cc1 (stereo not shown) [Compound 28f, 4-Hydroxyphenyl-5-(4-hydroxyphenyl)-6-(4-(3-methylbut-2-enamido)phenyl)-7-oxabicyclo[2.2.1]hept-5-ene-2-sulfonate] | 3.29 ± 0.25 | 8.53 ± 0.12 | > 31 | 0.93 ± 0.19 | 7.93 ± 0.34 | 2.41 | 9.11 ± 0.35 | 0.00203 | 0.00035 | – | – |
| C=CC(=O)Nc1ccc(C2=C(c3ccc(O)cc3)C3OC2CC3S(=O)(=O)N(CC(F)(F)F)c2ccc(O)cc2)cc1 (stereo not shown) [Compound 29a, N-(4-(3-(4-Hydroxyphenyl)-5-(N-(4-hydroxyphenyl)-N-(2,2,2-trifluoroethyl)sulfamoyl)-7-oxabicyclo[2.2.1]hept-2-en-2-yl)phenyl)acrylamide] | 6.74 ± 0.21 | 2.85 ± 0.29 | 5.55 ± 0.24 | 0.18 ± 0.05 | 20.03 ± 0.25 | 2.97 | > 31 | – | – | 0.00099 | 0.00014 |
| C/C=C/C(=O)Nc1ccc(C2=C(c3ccc(O)cc3)C3OC2CC3S(=O)(=O)N(CC(F)(F)F)c2ccc(O)cc2)cc1 (stereo not shown) [Compound 29b, (E)-N-(4-(3-(4-Hydroxyphenyl)-5-(N-(4-hydroxyphenyl)-N-(2,2,2-trifluoroethyl)sulfamoyl)-7-oxabicyclo[2.2.1]hept-2-en-2-yl)phenyl)but-2-enamide] | 0.63 ± 0.14 | 5.12 ± 0.33 | > 31 | 0.36 ± 0.04 | 19.82 ± 0.19 | 31.46 | > 31 | 0.0106 | 0.00014 | – | – |
